# In patent US10328077B2 (CELGENE CORPORATION, priority 2016, dated 2019):
# Tests used:
# [1] = target: T1, CYP3A4 (Homo sapiens (Human), UniProt P08684); assay: CYP inhibition in pooled human liver microsomes, CYP3A4; type: in vitro ADME
# [2] = in vivo; details: Crl:CD1(ICR), mouse, plasma, po, 15 mg/kg
# [3] = Pharmacokinetics after IV and oral dose, mice; type: in vivo, CD-1 mice; details: mouse
# [4] = test system: LXFS 2156 SCLC patient-derived xenograft; assay: LXFS 2156 SCLC PDX model; type: in vivo, mice; details: 5 mg base/kg oral QD×23
# [5] = target: CYP2C19 (Homo sapiens (Human), UniProt P33261); assay: CYP inhibition in pooled human liver microsomes, CYP2C19; type: in vitro ADME
# [6] = Pharmacokinetics after IV and oral dose, monkeys; type: in vivo; details: cynomolgus monkey, plasma, male; for half-life: read-out: t1/2, z (converted)
# [7] = Metabolism in cryopreserved primary hepatocytes; type: in vitro ADME; details: male mouse, rat, dog, monkey; mixed gender human
# [8] = target: T2, hERG potassium channel (Homo sapiens (Human), UniProt Q12809); assay: in vitro; details: HEK293 cells stably expressing hERG channels
# [9] = LXFS 615 SCLC PDX model; type: in vivo, mice; details: female, NMRI-Foxnlnu, mouse, oral; 5 mg base/kg, plasma after final dose; read-out: AUC0-24
# [10] = test system: LXFS 615 SCLC patient-derived xenograft; assay: LXFS 615 SCLC PDX model; type: in vivo, mice
# [11] = test system: ST18 and FREM2 gene expression in MKL-1 or MS-1 tumors; assay: qRT-PCR of candidate PD biomarker genes in hMCC xenografts (dose-response); type: in vivo, mice; details: 1, 2.5, or 5 mg/kg PO BID×4.5, both models
# Procedure: Female NSG mice bearing palpable hMCC MKL-1 and MS-1 tumors were randomized into four groups of three mice each. Three groups were orally administered Compund A as monotherapy at 1, 2.5, or 5 mg/kg on a twice daily dosing schedule for nine doses (BID×4.5). The fourth group was orally administered vehicle as a control on the BID schedule. Four hours after the last dosing, tumors were collected into RNAlater and stored frozen.
# Total RNA was eluted in RNase-free water and analyzed by qRT-PCR.
# [12] = 4-week toxicity study (no recovery period) in dogs (incl. TK)
# [13] = test system: LXFS 573 SCLC patient-derived xenograft; assay: LXFS 573 SCLC PDX model (monotherapy); type: in vivo, mice; details: for % TGI / TGI: Day 28
# [14] = test system: gene expression in MKL-1 and MS-1 hMCC cell lines; assay: RNA-seq modulation of gene expression in cultured hMCC cells; type: cell-based, human; details: 10 and 100 nM
# Procedure: The modulation of gene expression by Compund A for a panel of human genes was determined by culturing MKL-1 or MS-1 cells (Sigma-Aldrich, St. Louis, Mo.) for three days in the presence of 0, 10, or 100 nM Compund A and extracting total RNA for assessment by RNA-seq.
# Libraries were sequenced on an Illumina NextSeq® 500 System (Illumina, San Diego, Calif.) using 75 base paired-end RNA sequencing. Sequenced reads were mapped to the hg19 human genome build and differential expression was determined by analysis of variance across all replicates relative to the vehicle control.
# Sequenced reads were mapped to the hg19 human genome build using the Spliced Transcripts Alignment to a Reference (STAR) software tool (©Alexander Dobin, 2009-2016) and transcript counts were normalized using the Empirical Analysis of Digital Gene Expression Data in R (edgeR) and Differential gene expression analysis based on the negative binomial distribution (DESeq2) software tools (©Bioconductor, 2003-2017). Differential expression was determined by analysis of variance across all replicates relative to the vehicle control.
# [15] = target: T2, hERG potassium channel
# [16] = test system: NCI-H1417 SCLC xenograft; assay: NCI-H1417 SCLC xenograft efficacy, athymic nude mice; type: in vivo; details: for % TGI: Day 65; for mean body weight gain: end of study
# [17] = target: T1, CYP3A4; assay: CYP reaction phenotyping with recombinant human CYP enzymes; type: in vitro ADME
# Description: The role of non-CYP enzymes in the metabolism of Compound A is yet to be ascertained.
# [18] = test system: MS-1 hMCC xenograft; type: in vivo; details: 5 mg/kg PO 5 on/2 off
# [19] = CD-1, plasma, female, single IV dose 5 mg
# [20] = CD-1, plasma, female, single oral dose 10 mg base/kg
# T2 sequence (Q12809 whole entry): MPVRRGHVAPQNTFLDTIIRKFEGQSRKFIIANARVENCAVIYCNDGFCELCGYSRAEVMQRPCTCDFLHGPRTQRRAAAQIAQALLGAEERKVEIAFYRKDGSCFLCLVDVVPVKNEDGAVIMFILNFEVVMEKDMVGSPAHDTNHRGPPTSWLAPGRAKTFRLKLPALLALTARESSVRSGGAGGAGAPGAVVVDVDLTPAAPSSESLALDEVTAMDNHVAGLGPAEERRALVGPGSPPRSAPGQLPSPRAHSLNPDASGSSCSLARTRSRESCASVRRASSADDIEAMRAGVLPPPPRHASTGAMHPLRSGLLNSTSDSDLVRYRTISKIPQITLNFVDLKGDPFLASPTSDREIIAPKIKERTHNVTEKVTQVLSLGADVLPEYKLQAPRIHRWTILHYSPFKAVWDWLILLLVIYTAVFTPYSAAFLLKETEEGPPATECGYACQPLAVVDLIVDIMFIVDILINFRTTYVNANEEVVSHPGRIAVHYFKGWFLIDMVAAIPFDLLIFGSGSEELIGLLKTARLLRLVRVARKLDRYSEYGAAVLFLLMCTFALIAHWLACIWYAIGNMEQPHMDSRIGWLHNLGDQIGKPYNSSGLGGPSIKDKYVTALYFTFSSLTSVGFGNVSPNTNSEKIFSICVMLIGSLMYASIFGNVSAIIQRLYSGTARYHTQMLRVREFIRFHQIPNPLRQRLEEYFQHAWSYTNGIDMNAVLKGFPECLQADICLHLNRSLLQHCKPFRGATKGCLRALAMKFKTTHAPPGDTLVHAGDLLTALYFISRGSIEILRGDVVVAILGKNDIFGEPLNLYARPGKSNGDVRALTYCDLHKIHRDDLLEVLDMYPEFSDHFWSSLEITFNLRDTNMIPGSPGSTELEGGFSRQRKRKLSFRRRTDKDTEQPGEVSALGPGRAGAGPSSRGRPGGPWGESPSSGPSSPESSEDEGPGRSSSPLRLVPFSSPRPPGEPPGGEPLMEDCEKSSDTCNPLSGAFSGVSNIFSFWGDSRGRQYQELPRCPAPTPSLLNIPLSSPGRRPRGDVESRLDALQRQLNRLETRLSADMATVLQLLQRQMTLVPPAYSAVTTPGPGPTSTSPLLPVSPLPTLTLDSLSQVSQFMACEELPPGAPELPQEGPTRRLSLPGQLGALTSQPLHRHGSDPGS
# T1 sequence (P08684 whole entry): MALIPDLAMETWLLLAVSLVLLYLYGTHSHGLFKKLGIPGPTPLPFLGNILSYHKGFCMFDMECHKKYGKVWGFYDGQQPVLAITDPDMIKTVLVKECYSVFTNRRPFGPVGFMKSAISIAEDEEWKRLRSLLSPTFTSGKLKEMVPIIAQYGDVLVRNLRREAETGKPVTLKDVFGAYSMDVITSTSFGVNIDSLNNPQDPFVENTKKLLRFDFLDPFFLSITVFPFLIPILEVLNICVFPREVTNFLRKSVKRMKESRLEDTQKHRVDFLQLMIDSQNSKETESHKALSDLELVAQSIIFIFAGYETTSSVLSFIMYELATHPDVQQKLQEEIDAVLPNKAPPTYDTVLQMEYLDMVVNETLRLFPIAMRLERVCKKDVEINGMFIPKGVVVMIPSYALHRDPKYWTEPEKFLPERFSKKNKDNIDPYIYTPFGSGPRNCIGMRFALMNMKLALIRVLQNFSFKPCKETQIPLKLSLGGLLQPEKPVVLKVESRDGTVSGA
# Chain of CYP2C19 (P33261 whole entry): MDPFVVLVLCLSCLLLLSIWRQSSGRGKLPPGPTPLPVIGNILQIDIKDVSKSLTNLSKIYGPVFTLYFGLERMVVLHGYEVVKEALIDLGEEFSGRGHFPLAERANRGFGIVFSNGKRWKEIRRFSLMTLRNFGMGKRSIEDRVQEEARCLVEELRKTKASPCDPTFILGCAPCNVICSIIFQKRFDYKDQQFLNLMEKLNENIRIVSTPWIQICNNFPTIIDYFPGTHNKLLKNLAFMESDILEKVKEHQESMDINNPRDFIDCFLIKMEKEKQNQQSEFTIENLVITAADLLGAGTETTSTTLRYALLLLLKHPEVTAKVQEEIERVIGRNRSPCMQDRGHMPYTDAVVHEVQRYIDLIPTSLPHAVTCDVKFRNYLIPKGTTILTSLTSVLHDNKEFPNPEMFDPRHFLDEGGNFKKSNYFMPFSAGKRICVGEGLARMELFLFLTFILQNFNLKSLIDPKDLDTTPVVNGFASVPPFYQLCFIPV
compound,measurement,setting,value
"COc1ccc(-c2c(-c3ccc(C#N)c(F)c3)nc(N3CCC(N)CC3)n(C)c2=O)cc1F [Compound A, 4-[2-(4-amino-piperidin-1-yl)-5-(3-fluoro-4-methoxy-phenyl)-1-methyl-6-oxo-1,6-dihydro-pyrimidin-4-yl]-2-fluoro-benzonitrile]",IC50,[1],> 50 µM
same,AUC(0-t),[2]; female,9680 ng·h/mL
same,Cmax,[2]; female,850 ng/mL
same,AUC(0-t),[2]; male,7960 ng·h/mL
same,Cmax,[2]; male,628 ng/mL
same,half-life,"[3]; CD-1 (mice), Sprague Dawley (rats), plasma, IV, rodents (mice, rats), read-out: half-life",2 to 4 h
same,Tmax,"[3]; CD-1, Sprague Dawley, Beagle, plasma, oral, across mice, rats, dogs, monkeys, read-out: median tmax",0.5 to 6 h
same,bioavailability,"[3]; CD-1, Sprague Dawley, plasma, po, rodents, read-out: oral bioavailability",28 to 74%
same,AUC(0-inf),[3]; [19],2660 ng·h/mL
same,AUC(0-t),[3]; [19],2220 ng·h/mL
same,clearance,[3]; [19],32 mL/min/kg
same,Vd,"[3]; CD-1, plasma, female, single IV dose 5 mg, read-out: Vss",7.51 L/kg
same,half-life,"[3]; CD-1, plasma, female, single IV dose 5 mg, read-out: t1/2, z (converted)",3.8 h
same,AUC(0-t),[3]; [20],2010 ng·h/mL
same,Cmax,[3]; [20],510 ng/mL
same,bioavailability,"[3]; CD-1, plasma, female, single oral dose 10 mg base/kg, read-out: % F",38%
same,half-life,"[3]; CD-1, plasma, female, single oral dose 10 mg base/kg, read-out: t1/2, z (converted)",1.7 h
same,Tmax,"[3]; CD-1, plasma, female, single oral dose 10 mg base/kg, read-out: tmax",0.5 h
same,TGI,[4],−7%
same,IC50,[5],> 50 µM
same,AUC(0-inf),[6]; single IV dose 1 mg,983 ng·h/mL
same,AUC(0-t),[6]; single IV dose 1 mg,912 ng·h/mL
same,clearance,[6]; single IV dose 1 mg,18 mL/min/kg
same,Vd,"[6]; single IV dose 1 mg, mean (SD), read-out: Vss",17.1 L/kg
same,half-life,[6]; single IV dose 1 mg,12 h
same,AUC(0-t),[6]; single oral dose 5 mg base/kg,3620 ng·h/mL
same,Cmax,[6]; single oral dose 5 mg base/kg,187 ng/mL
same,Tmax,[6]; single oral dose 5 mg base/kg,6 h
same,bioavailability,[6]; single oral dose 5 mg base/kg,82%
same,half-life,[6]; single oral dose 5 mg base/kg,12.9 h
same,metabolic stability in hepatocytes,[7],greater in rat and dog followed by human and monkeys while being least stable in mouse hepatocytes
same,inhibition at 0.3 µM,[8],5.9 ± 1.3%
same,inhibition at 1 µM,[8],17.8 ± 0.3%
same,inhibition at 3 µM,[8],47 ± 1.9%
same,inhibition at 10 µM,[8],77.3 ± 0.2%
same,AUC(0-t),[9],1620 ng·h/mL
same,mean body weight loss,[10]; 5 mg base/kg,< 1%
same,TGI,[10]; 5 mg base/kg oral for 30 days,78%
same,ST18 and FREM2 change in gene expression in vivo,[11],≥ 2 fold
same,HNSTD,[12]; Q2W administration,0.5 mg base/kg/dose
same,NOAEL,[12]; Q2W administration,< 0.5 mg base/kg/dose
same,NOAEL,[12]; QW administration,0.125 mg base/kg/dose
same,HNSTD,[12]; QW dosing,0.25 mg base/kg/dose
same,Median Tumor Volume Day 28,[13]; 5 mg base/kg PO QDx28,308.3 mm^3
same,Median Tumor Volume Diff. (Day 28 - Day 0),[13]; 5 mg base/kg PO QDx28,199.9 mm^3
same,% TGI,[13]; 5 mg base/kg PO QDx28,78%
same,TGI,[13]; 5 mg base/kg oral,78%
same,Median Tumor Volume Day 28,[13]; 7.5 mg base/kg PO QDx28,496.6 mm^3
same,Median Tumor Volume Diff. (Day 28 - Day 0),[13]; 7.5 mg base/kg PO QDx28,383.4 mm^3
same,Median Tumor Volume Day 28,[13]; 10 mg base/kg PO QDx28,376.8 mm^3
same,Median Tumor Volume Diff. (Day 28 - Day 0),[13]; 10 mg base/kg PO QDx28,263.0 mm^3
same,% TGI,[13]; 10 mg base/kg PO QDx28,71%
same,TGI,[13]; 10 mg/kg oral,71%
same,mean body weight loss,"[13]; mouse, in vivo",≤ 3%
same,downregulated genes with expression changes in both hMCC lines at both concentrations (of 4303),"[14]; 3 days, MKL-1 and MS-1",17
same,upregulated genes with expression changes in both hMCC lines at both concentrations (of 3803),"[14]; 3 days, MKL-1 and MS-1",172
same,ST18 and FREM2 gene expression change (upregulated),[14]; both hMCC lines,at least 2 fold
same,Hill coefficient,[15],1.2
same,Median Tumor Volume Day 65,[16]; 2.5 mg base/kg PO QDx65,39.3 mm^3
same,Median Tumor Volume Diff. (Day 65 - Day 0),[16]; 2.5 mg base/kg PO QDx65,−69.9 mm^3
same,% TGI,[16]; 2.5 mg base/kg PO QDx65,159%
same,TGI,"[16]; 2.5 mg base/kg oral QD×65, Day 65",159%
same,mean body weight gain,[16]; 2.5 mg base/kg,1%
same,Median Tumor Volume Day 65,[16]; 5 mg base/kg PO QDx65,15.9 mm^3
same,Median Tumor Volume Diff. (Day 65 - Day 0),[16]; 5 mg base/kg PO QDx65,−92.3 mm^3
same,% TGI,[16]; 5 mg base/kg PO QDx65,178%
same,TGI,"[16]; 5 mg base/kg oral QD×65, Day 65",178%
same,mean body weight gain,[16]; 5 mg base/kg,7.5%
same,tumors regressed in net volume,[16]; 2.5 and 5 mg base/kg groups together,14 out of 15
same,role of CYP3A4 in metabolism,[17],predominantly responsible for the oxidative metabolism
same,Median Tumor Volume Day 36,[18],129 mm^3
same,Median Tumor Volume Diff (Day 36 - Day -3),[18],80 mm^3
